We go through 13 molecules from patent publication US4150153A, “1-(Naphthylethyl)imidazole derivatives” (Syntex (U.S.A.) Inc., priority 1977, dated 1979).

The nature of series [1]: lethalities in mice after a single intraperitoneal dose. The following applies: mouse, in vivo, ip, single dose intraperitoneally, lethalities determined after five days, doses 1-1,000 mg/kg. The procedure: Groups of 3 male ICR derived mice weighing 18-24 grams were given a single dose of compound intraperitoneally. The following doses were employed: 1, 3, 10, 30, 100, 300 or 1,000 mg/kg. After five days lethalities were determined.

Series [2] deals with male Hilltop ICR-derived mice. Put plainly: Maximal Electroshock Test in Mice. The following applies: intraperitoneally 15 minutes prior to transcorneal maximal electroshock (50 milliamps, 0.2 seconds), antagonizing tonic extension, in parentheses 95% confidence limits; for ED50: Mus musculus, ip, 0.25 h. It is filed as in vivo. On the procedure:
Maximal Electroshock Test in Mice
This test was performed in the standard manner, essentially as described by Swinyard et al., J. Pharm.
Groups of 10 male Hilltop ICR-derived mice weighing 20-30 grams were dosed intraperitoneally with a solution or suspension of drug in saline 15 minutes prior to a transcorneal maximal electroshock (50 milliamps, 0.2 seconds).

A word on the LD50: it is the dose expected to kill half of the subjects tested. By ED50 is commonly meant the midpoint of the dose-response relation. `O=C(Cn1ccnc1)c1cccc2ccccc12` [1-(1-naphthoylmethyl)imidazole]: the LD50 at 120 h in series [1] is 100 to 300 mg/kg. Further, in series [2], the 50% effective dose (ED50) was about 60 mg/kg.

Consider `O=C(Cn1ccnc1)c1ccc2ccccc2c1` [1-(2-naphthoylmethyl)imidazole], for which the median lethal dose (LD50) at 120 h in series [1] lay within 100 to 300 mg/kg. Moreover, the ED50 in series [2] worked out at 23 mg/kg.

Take `CC1CSC(Cn2ccnc2)(c2ccc3ccccc3c2)S1.Cl` (stereo not drawn) [1-[2,2-(1,2-propylenedithio)-2-(2-naphthyl)ethyl]imidazole hydrochloride]: in series [2], the “ED50 (95% confidence limits)” value was 65 (55-73) mg/kg.

In the case of `c1ccc2cc(C3(Cn4ccnc4)OCCCO3)ccc2c1` [1-[2,2-(1,3-propylenedioxy)-2-(2-naphthyl)ethyl]imidazole], the ED50 in series [2] was 17 mg/kg.

Consider `CC1CCOC(Cn2ccnc2)(c2ccc3ccccc3c2)O1` (stereo not drawn) [1-[2,2-(1-methyl-1,3-propylenedioxy)-2-(2-naphthyl)ethyl]imidazole], for which, in series [2], the 50% effective dose (ED50) amounted to 19 mg/kg.

For `CC1(C)COC(Cn2ccnc2)(c2ccc3ccccc3c2)OC1` [1-[2,2-(2,2-dimethyl-1,3-propylenedioxy)-2-(2-naphthyl)ethyl]imidazole], the ED50 in series [2] came to 26 mg/kg.

As for `CCSC(Cn1ccnc1)(SCC)c1ccc2ccccc2c1` [1-[2,2-bis(ethylthio)-2-(2-naphthyl)ethyl]imidazole], the ED50 in series [2] was determined as 35 mg/kg.

As for `CSC(Cn1ccnc1)(SC)c1ccc2ccccc2c1` [1-[2,2-bis(methylthio)-2-(2-naphthyl)ethyl]imidazole], the ED50 in series [2] was found to be 32 mg/kg.

Turning to `c1ccc2c(C3(Cn4ccnc4)OCCO3)cccc2c1` [1-[2,2-ethylenedioxy-2-(1-naphthyl)ethyl]imidazole], the median effective dose (ED50) in series [2] was determined as 19 mg/kg.

`c1ccc2cc(C3(Cn4ccnc4)OCCO3)ccc2c1` [1-[2,2-ethylenedioxy-2-(2-naphthyl)ethyl]imidazole]: in series [1], the 50% lethal dose (LD50) at 120 h was in the range of 100 to 300 mg/kg. Besides, the 50% effective dose (ED50) in series [2] amounted to 12 mg/kg.

With `c1ccc2cc(C3(Cn4ccnc4)SCCS3)ccc2c1` [1-[2,2-ethylenedithio-2-(2-naphthyl)ethyl]imidazole], the ED50 in series [2] amounted to 26 mg/kg.

In series [1], `OC(Cn1ccnc1)c1cccc2ccccc12` (stereo not drawn) [1-[2-hydroxy-2-(1-naphthyl)ethyl]imidazole] had an LD50 at 120 h of 300 to 1000 mg/kg. In addition, the 50% effective dose (ED50) in series [2] worked out at 37 mg/kg.

In series [1], `OC(Cn1ccnc1)c1ccc2ccccc2c1` (stereo not drawn) [1-[2-hydroxy-2-(2-naphthyl)ethyl]imidazole] returned a median lethal dose (LD50) at 120 h of 300 to 1000 mg/kg. Further, the ED50 in series [2] is 74 mg/kg.
